Where only a bound is given, the exact number is not on record here.

Format in all cases: functional, cell-based
The subject of one assay is MDA-MB-231. In words: Antiproliferative activity against human MDA-MB-231 cells assessed as inhibition of cell proliferation incubated for 48 hrs by MTT assay. Particulars: MDA-MB-231, 48 h. A general note: Tetrazolium assays rely on reduction of a dye to a coloured formazan, in cell work by metabolically active cells.
The next assay relates to HeLa. The assay can be described thus: Antiproliferative activity against human HeLa cells assessed as inhibition of cell proliferation incubated for 48 hrs by MTT assay.
A further assay has as its system MCF7. The assay can be described thus: Antiproliferative activity against human MCF7 cells assessed as inhibition of cell proliferation incubated for 48 hrs by MTT assay. The settings on record: MCF7, 48 h.

What is called IC50 is the concentration needed to halve the response being measured. On to `C=C(C)[C@@H]1CC[C@]2(C(=O)O)CC[C@]3(C)[C@H](CC[C@@H]4[C@@]5(C)CC[C@H](OC(=O)NCCCNC(=O)CCl)C(C)(C)[C@@H]5CC[C@]43C)[C@@H]12`, for which the IC50 with MDA-MB-231 is 8.48 µM; in the assay on HeLa it was 7.34 µM; with MCF7, 7.25 µM.
In the case of `C=C(C)[C@@H]1CC[C@]2(C(=O)OCc3ccccc3)CC[C@]3(C)[C@H](CC[C@@H]4[C@@]5(C)CC[C@H](OC(=O)N6CCN(C(=O)CCl)CC6)C(C)(C)[C@@H]5CC[C@]43C)[C@@H]12`, the IC50 in the assay on MDA-MB-231, in the assay with HeLa and in the assay with MCF7 was greater than 100 µM throughout.
As for `C=CCNC(=O)[C@]12CC[C@@H](C(=C)C)[C@@H]1[C@H]1CC[C@@H]3[C@@]4(C)CC[C@H](OC(=O)N5CCN(C(=O)CCl)CC5)C(C)(C)[C@@H]4CC[C@@]3(C)[C@]1(C)CC2`, the IC50 with MDA-MB-231 stood at 18 µM; in the assay on HeLa, 17.2 µM; with MCF7, 16.7 µM.
For the compound `C=C(C)[C@@H]1CC[C@]2(C(=O)N3CCN(C(=O)CCl)CC3)CC[C@]3(C)[C@H](CC[C@@H]4[C@@]5(C)CCC(=O)C(C)(C)[C@@H]5CC[C@]43C)[C@@H]12`, the IC50 in the assay with HeLa came to 2.01 µM; in the assay on MCF7, 2.52 µM.
As to `C=C(C)[C@@H]1CC[C@]2(C(=O)O)CC[C@]3(C)[C@H](CC[C@@H]4[C@@]5(C)CC[C@H](OC(=O)NCCCCNC(=O)CCl)C(C)(C)[C@@H]5CC[C@]43C)[C@@H]12`, the IC50 was 8.94 µM in the assay with MDA-MB-231, 8.69 µM with HeLa and 7.24 µM in the assay with MCF7.
As to `C=C(C)[C@@H]1CC[C@]2(C(=O)OCc3ccccc3)CC[C@]3(C)[C@H](CC[C@@H]4[C@@]5(C)CC[C@H](OC(=O)CCl)C(C)(C)[C@@H]5CC[C@]43C)[C@@H]12`, the IC50 in the assay with MDA-MB-231, in the assay on HeLa and with MCF7 was greater than 75 µM throughout.
Consider `C=C(C)[C@@H]1CC[C@]2(C(=O)OCc3ccccc3)CC[C@]3(C)[C@H](CC[C@@H]4[C@@]5(C)CC[C@@H](OC(=O)CCl)C(C)(C)[C@@H]5CC[C@]43C)[C@@H]12`, for which the IC50 with HeLa and in the assay with MCF7 was greater than 75 µM each time.
For the compound `C=CC(=O)O[C@H]1CC[C@]2(C)[C@H]3CC[C@@H]4[C@H]5[C@H](C(=C)C)CC[C@]5(C(=O)O)CC[C@@]4(C)[C@]3(C)CC[C@H]2C1(C)C`, the IC50 in the assay on MDA-MB-231 worked out at 30.9 µM; in the assay with HeLa, 33.5 µM; in the assay with MCF7 it was 35.3 µM.
In the same order, the values of `C=C(C)[C@@H]1CC[C@]2(C(=O)O)CC[C@]3(C)[C@H](CC[C@@H]4[C@@]5(C)CC[C@H](OC(=O)CBr)C(C)(C)[C@@H]5CC[C@]43C)[C@@H]12` are 18.6 µM, 18.7 µM and 17.5 µM.
In the same order, the values of `C=C(C)[C@@H]1CC[C@]2(C(=O)OC)CC[C@]3(C)[C@H](CC[C@@H]4[C@@]5(C)CC[C@H](OC(=O)CCl)C(C)(C)[C@@H]5CC[C@]43C)[C@@H]12` are greater than 75 µM, greater than 75 µM and greater than 75 µM.
For the compound `C=C(C)[C@@H]1CC[C@]2(C(=O)N3CCN(C(C)=O)CC3)CC[C@]3(C)[C@H](CC[C@@H]4[C@@]5(C)CCC(=O)C(C)(C)[C@@H]5CC[C@]43C)[C@@H]12`, the results for the IC50 in the assay on MDA-MB-231, in the assay on HeLa and in the assay with MCF7 were 36.3 µM, 30 µM and 29.9 µM, respectively.
As for `C=C(C)[C@@H]1CC[C@]2(C(=O)O)CC[C@]3(C)[C@H](CC[C@@H]4[C@@]5(C)CC[C@H](OC(C)=O)C(C)(C)[C@@H]5CC[C@]43C)[C@@H]12`, the IC50 worked out at 35 µM in the assay with MDA-MB-231, 32.1 µM in the assay with HeLa and 43.6 µM in the assay with MCF7.
`C=C(C)[C@@H]1CC[C@]2(C(=O)O)CC[C@]3(C)[C@H](CC[C@@H]4[C@@]5(C)CC[C@H](O)C(C)(C)[C@@H]5CC[C@]43C)[C@@H]12` [BETULINIC ACID]: the IC50 worked out at 66 µM in the assay with MDA-MB-231, 51.3 µM in the assay with HeLa and 40.8 µM in the assay with MCF7.
For the compound `C=C(C)[C@@H]1CC[C@]2(C(=O)O)CC[C@]3(C)[C@H](CC[C@@H]4[C@@]5(C)CC[C@H](OC(=O)CC)C(C)(C)[C@@H]5CC[C@]43C)[C@@H]12`, the IC50 in the assay on MDA-MB-231 was 30.9 µM; with HeLa, 39.4 µM; with MCF7 it was 45.1 µM.
As to `C=C(C)[C@@H]1CC[C@]2(C(=O)O)CC[C@]3(C)[C@H](CC[C@@H]4[C@@]5(C)CC[C@H](OC(=O)CCl)C(C)(C)[C@@H]5CC[C@]43C)[C@@H]12`, the values for the IC50 with MDA-MB-231, in the assay on HeLa and in the assay with MCF7 were 17.6 µM, 15.3 µM and 16.2 µM, respectively.
With `C=C(C)[C@@H]1CC[C@]2(C(=O)OCc3ccccc3)CC[C@]3(C)[C@H](CC[C@@H]4[C@@]5(C)CC[C@H](OC(=O)NC(=O)CCl)C(C)(C)[C@@H]5CC[C@]43C)[C@@H]12`, the IC50 in the assay with MDA-MB-231, in the assay on HeLa and in the assay on MCF7 was greater than 150 µM in each case.
`C=C(C)[C@@H]1CC[C@]2(C(=O)N3CCN(C(=O)CCl)CC3)CC[C@]3(C)[C@H](CC[C@@H]4[C@@]5(C)CC[C@H](OC(=O)Nc6ccccc6)C(C)(C)[C@@H]5CC[C@]43C)[C@@H]12`: the IC50 in the assay on MDA-MB-231, with HeLa and with MCF7 was greater than 100 µM throughout.
Take `C=C(C)[C@@H]1CC[C@]2(C(=O)N3CCN(C)CC3)CC[C@]3(C)[C@H](CC[C@@H]4[C@@]5(C)CC[C@H](OC(=O)N6CCN(C(=O)CCl)CC6)C(C)(C)[C@@H]5CC[C@]43C)[C@@H]12`: the IC50 in the assay on MDA-MB-231 is 25.6 µM; with HeLa, 21.4 µM; in the assay on MCF7, 20.7 µM.
As for `C=C(C)[C@@H]1CC[C@]2(C(=O)O)CC[C@]3(C)[C@H](CC[C@@H]4[C@@]5(C)CC[C@H](OC(=O)N6CCN(C(=O)C(F)(F)Cl)CC6)C(C)(C)[C@@H]5CC[C@]43C)[C@@H]12`, the IC50 is 26.3 µM with MDA-MB-231, 31.3 µM in the assay with HeLa and 30.7 µM in the assay with MCF7.
Consider `C=C(C)[C@@H]1CC[C@]2(C(=O)O)CC[C@]3(C)[C@H](CC[C@@H]4[C@@]5(C)CC[C@H](OC(=O)C(Cl)Cl)C(C)(C)[C@@H]5CC[C@]43C)[C@@H]12`, for which the values for the IC50 in the assay with MDA-MB-231, in the assay with HeLa and in the assay with MCF7 were 35.7 µM, 66.2 µM and 51.5 µM, respectively.
With `C=C(C)[C@@H]1CC[C@]2(C(=O)O)CC[C@]3(C)[C@H](CC[C@@H]4[C@@]5(C)CC[C@@H](OC(=O)CCl)C(C)(C)[C@@H]5CC[C@]43C)[C@@H]12`, the results for the IC50 in the assay with HeLa and in the assay with MCF7 were 16.9 µM and 17.1 µM, respectively.
With `C=C(C)[C@@H]1CC[C@]2(C(=O)N3CCNCC3)CC[C@]3(C)[C@H](CC[C@@H]4[C@@]5(C)CCC(=O)C(C)(C)[C@@H]5CC[C@]43C)[C@@H]12`, the results for the IC50 in the assay with MDA-MB-231, in the assay on HeLa and in the assay on MCF7 were 3 µM, 3.04 µM and 3.94 µM, respectively.
With `C=C(C)[C@@H]1CC[C@]2(C(=O)O)CC[C@]3(C)[C@H](CC[C@@H]4[C@@]5(C)CC[C@H](OC(=O)NCCNC(=O)CCl)C(C)(C)[C@@H]5CC[C@]43C)[C@@H]12`, the IC50 in the assay on MDA-MB-231 was determined as 9.64 µM; in the assay on HeLa, 8.73 µM; in the assay with MCF7, 6.81 µM.
